One assay deals with Estrogen receptor beta (Homo sapiens, UniProt Q92731).
The nature of assay [1]: A High Throughput Confirmatory Assay used to Identify Novel Compounds that Inhibit Mycobacterium Tuberculosis in the absence of Glycerol. The class given is functional.
A short description of assay [2]: insulin promoter down-regulators in MIN6 cells, imaging, high-content screening, mouse beta cells (AID 1628). The class given is functional.
A short description of assay [3]: cytotoxicity in MIN6 insulinoma cells, dose response, cytotoxicity control, cell-based, mouse insulinoma (AID 2122).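 Also: confirmatory high-throughput counterscreen run to flag cytotoxic compounds; mouse MIN-6 beta cells carrying an insulin promoter eGFP reporter.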 The class given is functional.
The nature of assay [4]: cytotoxicity in HPDE-C7 cells, cell-based, fluorescence, HTS (AID 430). The format is functional. The note with it: Homo sapiens.
The nature of assay [5]: cytotoxicity in KRAS-transformed pancreatic duct cells, primary screen, cell-based, fluorescence, HTS (AID 431).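 Also: cell line used: HPDE-C7K.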 The format is functional. The note with it: Homo sapiens.
The target of assay [6] is T1, Mannose-6-phosphate isomerase (Homo sapiens, UniProt P34949).
T1 sequence (P34949 whole entry): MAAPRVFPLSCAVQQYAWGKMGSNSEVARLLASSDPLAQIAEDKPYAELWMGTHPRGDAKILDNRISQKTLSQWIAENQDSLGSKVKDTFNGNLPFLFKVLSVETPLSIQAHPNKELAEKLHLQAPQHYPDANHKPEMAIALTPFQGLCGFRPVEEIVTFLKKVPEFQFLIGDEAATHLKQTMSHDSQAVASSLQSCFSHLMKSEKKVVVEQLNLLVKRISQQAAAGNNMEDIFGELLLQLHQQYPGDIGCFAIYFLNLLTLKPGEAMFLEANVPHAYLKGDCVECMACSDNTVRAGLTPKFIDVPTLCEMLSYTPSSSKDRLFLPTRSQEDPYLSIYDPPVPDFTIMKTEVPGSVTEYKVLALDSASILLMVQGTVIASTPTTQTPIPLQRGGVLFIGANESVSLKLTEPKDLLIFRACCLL
In words: human PMI inhibitors, high substrate, primary screen, biochemical, fluorescence intensity, high mannose 6-phosphate (AID 1220).

Assay [7] has as its target Mitogen-activated protein kinase 10 (Homo sapiens, UniProt P53779). As to the kind of experiment: Dose response biochemical screening assay for inhibitors of c-Jun N-Terminal Kinase 3 (JNK3). [Related pubchem assays: 746 ].
Assay [8] is described as follows: microbe, parasite or virus in culture. The note with it: Mycobacterium tuberculosis. The format is functional.
Assay [9] deals with T2, Short transient receptor potential channel 4 (Mus musculus, UniProt Q9QUQ5).
T2 sequence (Q9QUQ5 whole entry): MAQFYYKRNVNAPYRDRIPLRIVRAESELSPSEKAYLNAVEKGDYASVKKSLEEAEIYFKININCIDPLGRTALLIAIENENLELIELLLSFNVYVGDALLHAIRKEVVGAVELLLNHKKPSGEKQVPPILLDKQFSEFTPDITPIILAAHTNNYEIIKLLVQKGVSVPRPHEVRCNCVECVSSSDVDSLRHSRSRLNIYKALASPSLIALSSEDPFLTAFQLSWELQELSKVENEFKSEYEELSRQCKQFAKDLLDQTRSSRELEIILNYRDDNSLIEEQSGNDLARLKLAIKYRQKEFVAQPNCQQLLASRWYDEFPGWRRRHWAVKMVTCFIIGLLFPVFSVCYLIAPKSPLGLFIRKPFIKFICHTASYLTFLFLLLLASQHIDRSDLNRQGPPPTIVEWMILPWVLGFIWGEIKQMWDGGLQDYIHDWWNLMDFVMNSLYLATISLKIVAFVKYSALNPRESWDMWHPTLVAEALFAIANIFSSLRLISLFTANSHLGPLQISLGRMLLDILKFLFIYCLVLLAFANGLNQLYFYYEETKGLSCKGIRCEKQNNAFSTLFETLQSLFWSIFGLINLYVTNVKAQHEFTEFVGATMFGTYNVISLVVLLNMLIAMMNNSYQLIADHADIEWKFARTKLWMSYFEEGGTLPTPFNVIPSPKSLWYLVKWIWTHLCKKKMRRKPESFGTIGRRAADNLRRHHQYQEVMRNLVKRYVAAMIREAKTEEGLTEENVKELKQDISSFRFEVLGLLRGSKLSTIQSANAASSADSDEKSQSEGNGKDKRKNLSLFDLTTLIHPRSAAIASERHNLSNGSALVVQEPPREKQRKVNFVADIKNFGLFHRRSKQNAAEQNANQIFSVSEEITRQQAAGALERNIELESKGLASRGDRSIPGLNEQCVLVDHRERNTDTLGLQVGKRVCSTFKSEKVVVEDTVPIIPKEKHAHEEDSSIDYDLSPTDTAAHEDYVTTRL
As to the kind of experiment: mouse TRPC4 channel inhibitors, dose response, cell-based, HEK293 TRPC4/mu-opioid, Fluo-4 calcium (AID 434942).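 Also: potency of inhibitors blocking the TRPC4 calcium response.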 The class given is functional.

In assay [10] the target is DNA dC->dU-editing enzyme APOBEC-3A (Homo sapiens, UniProt P31941). As to the kind of experiment: APOBEC3A DNA deaminase inhibitors, dose response, biochemical (AID 504722). The class given is functional.
In assay [11] the target is DNA dC->dU-editing enzyme APOBEC-3G (Homo sapiens, UniProt Q9HC16). In words: Dose Response confirmation of small molecule APOBEC3G DNA Deaminase Inhibitors via a fluorescence-based single-stranded DNA deaminase assay. [Related pubchem assays (depositor defined):AID493012, AID493028]. The format is functional.
For assay [12], the target named is T3, Polyadenylate-binding protein 1 (Homo sapiens, UniProt P11940). In words: PABP1 MLLE–PAM2 interaction inhibitors, dose response, miRNA deadenylation inhibitor project, biochemical, fluorescence polarization, Cy5-PAM2 peptide, secondary (AID 602260). The format is functional. The note with it: read-out: IC50_Mean. A general note: Polarisation of emitted light reports the rotation of a fluorescent probe.

The target of assay [13] is T3, Polyadenylate-binding protein 1. As to the kind of experiment: PABP1 MLLE–PAM2 binding inhibitor potency, dose response, biochemical, fluorescence polarization, FITC-PAM2 peptide (AID 602259). The format is functional. The note with it: read-out: IC50_Mean.
In assay [14] the target is T4, Heat shock factor protein 1 (Mus musculus, UniProt P38532).
T4 sequence (P38532 whole entry): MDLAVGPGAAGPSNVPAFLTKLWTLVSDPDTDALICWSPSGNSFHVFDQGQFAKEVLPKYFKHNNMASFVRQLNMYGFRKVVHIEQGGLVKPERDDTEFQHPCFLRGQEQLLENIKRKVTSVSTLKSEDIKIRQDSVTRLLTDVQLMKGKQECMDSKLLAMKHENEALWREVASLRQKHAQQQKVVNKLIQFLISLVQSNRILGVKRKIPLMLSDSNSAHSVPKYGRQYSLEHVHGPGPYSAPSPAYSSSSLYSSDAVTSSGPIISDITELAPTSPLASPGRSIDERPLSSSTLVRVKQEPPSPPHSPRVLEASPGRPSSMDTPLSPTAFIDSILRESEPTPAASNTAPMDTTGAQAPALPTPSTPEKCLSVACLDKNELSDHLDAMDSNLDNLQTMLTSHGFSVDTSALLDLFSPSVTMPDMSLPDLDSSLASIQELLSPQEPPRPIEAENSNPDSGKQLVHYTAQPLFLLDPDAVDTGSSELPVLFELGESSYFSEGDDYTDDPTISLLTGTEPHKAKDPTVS
In words: HSF1 potentiators in luciferase reporter cells, confirmation, cell-based, NIH3T3, luminescence, dose retest (AID 435004).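 Also: stress induced by proteasome inhibitor MG132 added 30 min after compound; luciferase reporter driven by HSF1 response element in NIH3T3 cells; actives raise luminescence as potentiators of the MG132 stress response.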 The class given is functional. (In a reporter assay the amount or activity of a reporter protein is the signal.)

The target of assay [15] is T5, Replicative DNA helicase DnaB (Mycobacterium tuberculosis, UniProt P9WMR3).
T5 sequence (P9WMR3 whole entry): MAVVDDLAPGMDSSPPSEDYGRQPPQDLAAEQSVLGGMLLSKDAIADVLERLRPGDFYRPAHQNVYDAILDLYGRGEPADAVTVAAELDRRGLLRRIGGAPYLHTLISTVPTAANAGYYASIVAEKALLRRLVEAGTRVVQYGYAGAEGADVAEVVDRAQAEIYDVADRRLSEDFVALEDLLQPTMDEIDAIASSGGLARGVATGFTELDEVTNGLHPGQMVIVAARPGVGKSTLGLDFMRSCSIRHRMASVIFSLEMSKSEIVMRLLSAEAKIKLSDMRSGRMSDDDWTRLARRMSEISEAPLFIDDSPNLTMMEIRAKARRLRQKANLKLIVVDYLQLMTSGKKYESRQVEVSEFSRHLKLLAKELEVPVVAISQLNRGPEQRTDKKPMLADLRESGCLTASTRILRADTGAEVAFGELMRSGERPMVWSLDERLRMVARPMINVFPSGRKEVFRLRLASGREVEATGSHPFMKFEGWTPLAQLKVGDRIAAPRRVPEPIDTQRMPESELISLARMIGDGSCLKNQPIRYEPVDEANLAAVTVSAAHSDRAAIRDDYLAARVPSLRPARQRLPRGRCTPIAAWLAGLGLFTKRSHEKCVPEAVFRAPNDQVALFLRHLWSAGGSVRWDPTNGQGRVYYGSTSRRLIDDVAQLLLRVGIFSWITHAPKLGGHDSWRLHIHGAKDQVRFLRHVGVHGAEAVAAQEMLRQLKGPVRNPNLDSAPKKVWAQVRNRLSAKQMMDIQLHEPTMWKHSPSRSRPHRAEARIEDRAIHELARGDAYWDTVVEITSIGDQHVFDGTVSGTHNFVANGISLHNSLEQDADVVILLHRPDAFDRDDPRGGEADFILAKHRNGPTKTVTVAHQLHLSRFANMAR
In words: DnaB intein splicing inhibitors, dose response, biochemical, cell-free fluorescence (AID 449749). The class given is functional.

The next assay deals with T6, Protein RecA (Mycobacterium tuberculosis, UniProt P9WHJ3).
T6 sequence (P9WHJ3 whole entry): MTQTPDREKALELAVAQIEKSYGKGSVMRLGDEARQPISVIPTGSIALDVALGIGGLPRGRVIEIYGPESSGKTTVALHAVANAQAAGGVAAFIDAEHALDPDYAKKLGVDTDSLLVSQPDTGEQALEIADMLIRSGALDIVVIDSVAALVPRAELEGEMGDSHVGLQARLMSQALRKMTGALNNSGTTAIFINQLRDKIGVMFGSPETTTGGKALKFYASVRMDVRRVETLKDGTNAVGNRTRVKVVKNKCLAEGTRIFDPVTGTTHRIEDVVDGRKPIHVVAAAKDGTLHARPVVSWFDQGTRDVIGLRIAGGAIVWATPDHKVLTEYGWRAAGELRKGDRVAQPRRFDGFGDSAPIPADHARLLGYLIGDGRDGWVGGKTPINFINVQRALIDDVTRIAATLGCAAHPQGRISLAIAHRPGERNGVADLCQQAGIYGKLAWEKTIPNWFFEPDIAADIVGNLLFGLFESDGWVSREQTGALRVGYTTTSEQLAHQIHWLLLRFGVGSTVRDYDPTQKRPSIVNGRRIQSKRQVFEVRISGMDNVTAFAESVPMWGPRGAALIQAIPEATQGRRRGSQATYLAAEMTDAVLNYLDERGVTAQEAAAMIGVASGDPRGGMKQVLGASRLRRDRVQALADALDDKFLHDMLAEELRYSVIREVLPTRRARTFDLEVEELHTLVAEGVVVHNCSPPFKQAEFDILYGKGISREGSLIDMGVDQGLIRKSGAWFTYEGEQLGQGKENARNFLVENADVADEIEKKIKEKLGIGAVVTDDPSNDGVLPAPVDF
In words: Fluorescence Cell-Free Homogeneous Dose Retest to Identify Inhibitors of RecA-Intein Splicing Activity. [Related pubchem assays (depositor defined):AID2097, AID2223, AID489010, AID492950]. The class given is functional.

The structures appear in SMILES notation. Activity calls are given as the source filed them. A value given as a limit tells only on which side of the number the result lay.

Usually EC50 stands for the concentration that produces a half-maximal response. For orientation: AC50 means the midpoint of the concentration-response curve, whichever way the signal moves.

T3 sequence (P11940 whole entry): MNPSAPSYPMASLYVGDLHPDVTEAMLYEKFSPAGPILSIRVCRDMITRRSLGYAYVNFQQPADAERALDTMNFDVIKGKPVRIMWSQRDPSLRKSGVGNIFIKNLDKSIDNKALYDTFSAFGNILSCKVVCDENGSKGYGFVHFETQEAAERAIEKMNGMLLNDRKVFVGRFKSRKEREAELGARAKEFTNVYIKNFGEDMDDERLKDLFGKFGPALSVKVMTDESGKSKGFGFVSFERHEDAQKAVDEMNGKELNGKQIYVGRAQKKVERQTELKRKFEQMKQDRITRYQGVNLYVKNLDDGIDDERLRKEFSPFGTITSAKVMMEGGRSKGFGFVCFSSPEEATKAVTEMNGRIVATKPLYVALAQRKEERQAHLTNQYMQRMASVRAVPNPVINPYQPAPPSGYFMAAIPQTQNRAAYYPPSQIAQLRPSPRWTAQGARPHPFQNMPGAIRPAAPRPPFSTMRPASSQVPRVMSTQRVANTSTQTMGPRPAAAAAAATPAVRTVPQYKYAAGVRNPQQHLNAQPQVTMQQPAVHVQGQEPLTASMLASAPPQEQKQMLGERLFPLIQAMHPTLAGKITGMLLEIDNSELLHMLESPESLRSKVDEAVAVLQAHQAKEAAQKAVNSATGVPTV
Sequence of DNA dC->dU-editing enzyme APOBEC-3A (P31941 whole entry): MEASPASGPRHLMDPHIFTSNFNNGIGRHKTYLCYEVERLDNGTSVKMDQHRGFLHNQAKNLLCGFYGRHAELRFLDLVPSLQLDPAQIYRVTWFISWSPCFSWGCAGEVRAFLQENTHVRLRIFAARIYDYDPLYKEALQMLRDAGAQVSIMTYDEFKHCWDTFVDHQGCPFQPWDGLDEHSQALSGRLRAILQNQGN
Sequence of Estrogen receptor beta (Q92731 whole entry): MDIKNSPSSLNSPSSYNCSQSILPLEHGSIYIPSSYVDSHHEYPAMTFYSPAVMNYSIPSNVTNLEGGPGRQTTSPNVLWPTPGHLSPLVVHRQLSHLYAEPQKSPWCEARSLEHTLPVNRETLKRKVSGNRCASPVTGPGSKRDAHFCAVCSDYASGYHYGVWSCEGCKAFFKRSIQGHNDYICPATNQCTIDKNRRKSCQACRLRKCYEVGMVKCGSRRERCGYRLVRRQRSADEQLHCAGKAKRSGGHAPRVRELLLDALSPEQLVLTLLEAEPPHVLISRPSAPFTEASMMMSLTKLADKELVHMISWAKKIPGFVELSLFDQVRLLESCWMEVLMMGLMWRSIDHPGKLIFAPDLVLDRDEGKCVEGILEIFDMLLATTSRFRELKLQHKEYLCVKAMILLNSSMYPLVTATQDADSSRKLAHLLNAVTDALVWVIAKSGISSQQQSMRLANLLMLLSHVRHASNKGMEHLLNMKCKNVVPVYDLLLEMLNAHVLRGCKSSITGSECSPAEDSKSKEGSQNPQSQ
Sequence of Mitogen-activated protein kinase 10 (P53779 whole entry): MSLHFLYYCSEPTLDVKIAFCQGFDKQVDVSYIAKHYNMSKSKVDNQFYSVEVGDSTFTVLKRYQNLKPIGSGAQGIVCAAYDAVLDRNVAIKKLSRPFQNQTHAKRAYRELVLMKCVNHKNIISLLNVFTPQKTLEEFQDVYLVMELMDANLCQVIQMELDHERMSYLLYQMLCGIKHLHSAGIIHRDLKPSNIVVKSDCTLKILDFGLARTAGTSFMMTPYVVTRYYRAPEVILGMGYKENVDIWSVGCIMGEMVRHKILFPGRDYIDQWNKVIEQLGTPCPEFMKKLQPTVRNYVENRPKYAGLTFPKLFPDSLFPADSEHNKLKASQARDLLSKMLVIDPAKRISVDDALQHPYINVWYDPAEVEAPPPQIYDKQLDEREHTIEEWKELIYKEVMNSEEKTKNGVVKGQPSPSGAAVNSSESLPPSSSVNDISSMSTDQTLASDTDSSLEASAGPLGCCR
Sequence of DNA dC->dU-editing enzyme APOBEC-3G (Q9HC16 whole entry): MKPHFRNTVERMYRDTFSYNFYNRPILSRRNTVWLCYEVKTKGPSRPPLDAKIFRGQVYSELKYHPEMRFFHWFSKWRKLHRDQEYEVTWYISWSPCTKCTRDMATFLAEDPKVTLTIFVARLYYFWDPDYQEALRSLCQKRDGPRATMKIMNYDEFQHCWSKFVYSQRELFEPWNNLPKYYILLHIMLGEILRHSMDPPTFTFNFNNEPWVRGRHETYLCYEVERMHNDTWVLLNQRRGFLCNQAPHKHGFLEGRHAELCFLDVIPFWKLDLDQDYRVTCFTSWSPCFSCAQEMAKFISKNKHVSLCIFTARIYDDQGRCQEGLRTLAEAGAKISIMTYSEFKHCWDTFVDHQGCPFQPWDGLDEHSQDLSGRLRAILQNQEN

In the case of `O=S(=O)(Nc1ncnc2sc3c(c12)CCC3)c1ccc2ccccc2c1`, the IC50 on Estrogen receptor beta is 25 µM (active).

As for `COc1ccc(-c2cc(-c3ccc(OC)cc3)[nH]n2)cc1`, the IC50 in [1] is > 50 µM (active).

Take `Cc1ccc(C(C)C)c(OCC(=O)Nc2ccccc2N2CCN(C)CC2)c1`: the IC50 was 2.58 µM (active) in assay [2] and 6.82 µM (active) in [3]. The EC50 in assay [4] and in assay [5] was > 20 µM (not active) in each case.

For `Cc1ccc2[nH]c3c(c2c1)CCc1c[nH]nc1-3`, the IC50 is 43.4 µM (active) in assay [6] and 16.4 µM (not active) in assay [7].

Regarding `N#Cc1cccc2c1-c1ccccc1/C2=N/NC(N)=O`, the IC50 in assay [1] is > 100 µM (active). In [8], the CC50 was > 40 µM (active). For the same compound, the EC50 in [9] is 0.0533 µM (active).

With `CCn1c(O)nc(CS(=O)(=O)c2ccccc2)c1C`, the IC50 in [6] is 1.23 µM (active); in assay [10], > 100 µM (inactive); in assay [11], 6.9 µM (active); in [12] it was > 66 µM (inactive); in assay [13] it was > 66 µM (inactive).

Consider `COc1ccccc1-n1nnnc1S(=O)(=O)Cc1ccc(Cl)cc1`, for which the EC50 in [4] was 6.84 µM (active); in assay [5], 9.56 µM (active); in [14], 17.3 µM (active); at Protein RecA, 1.94 µM (active). Also, in assay [15], the AC50 was 5.1 µM (active).

(Values after ChEMBL document CHEMBL1201862, “PubChem BioAssay data set” (2004).)
